# In PubChem BioAssay (NCI):
# Several values for one entry are separate records, joined by “and”; a condition that tells them apart may be missing. Equal entries are not always repeated.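 Each compound was tested at five concentrations against cells in 96-well plates for 48 hours. Here, GI50 denotes the concentration required for 50% inhibition of growth. TGI: concentration producing complete growth inhibition.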
# Key:
# Assay in all cases: NCI tumour cell line growth inhibition, 48 h
# SNB-78 CNS = test system: SNB-78 CNS
# MALME-3M melanoma = test system: MALME-3M melanoma
# HCT-15 colon = test system: HCT-15 colon
# UACC-257 melanoma = test system: UACC-257 melanoma
# UO-31 renal = test system: UO-31 renal
# SW-620 colon = test system: SW-620 colon
# A498 renal = test system: A498 renal
# HCC-2998 colon = test system: HCC-2998 colon
# UACC-62 melanoma = test system: UACC-62 melanoma
# DLD-1 colon = test system: DLD-1 colon
SMILES,TGI (SNB-78 CNS),TGI (MALME-3M melanoma),TGI (HCT-15 colon),TGI (UACC-257 melanoma),TGI (UO-31 renal),TGI (SW-620 colon),TGI (A498 renal),TGI (HCC-2998 colon),TGI (UACC-62 melanoma),TGI (DLD-1 colon),GI50 (MALME-3M melanoma),GI50 (HCT-15 colon),GI50 (UACC-257 melanoma),GI50 (UO-31 renal),GI50 (SW-620 colon),GI50 (A498 renal),GI50 (HCC-2998 colon),GI50 (UACC-62 melanoma)
O=C(CC(=O)C1CCOC1=O)C(=O)Nc1ccc(Cl)cc1Cl (configuration not stated),> 100 µM,> 100 µM,> 100 µM,> 100 µM,> 100 µM,> 100 µM,> 100 µM,> 100 µM,> 100 µM,> 100 µM,–,–,–,–,–,–,–,–
COC(=O)C(Cc1nc2ccc(Cl)cc2[nH]c1=O)/C(=N/NC(N)=O)C(=O)Nc1ccc(Cl)cc1 (configuration not stated),> 100 µM,> 100 µM,> 100 µM,> 100 µM,> 100 µM,> 100 µM,> 100 µM,> 100 µM,> 100 µM,–,–,–,–,–,–,–,–,–
COCCOCC(=O)N(CCn1ccc(NC(c2ccccc2)(c2ccccc2)c2ccccc2)nc1=O)CCn1cnc2nc(N)[nH]c(=O)c21,> 100 µM,> 100 µM,> 100 µM,> 100 µM,> 100 µM,> 100 µM,> 100 µM,> 100 µM,> 100 µM,> 100 µM,–,–,–,–,–,–,–,–
Cn1c2c(c3ccccc31)CCN(CCCCN1CCN(c3cccc(Cl)c3)CC1)C2=O,27.8 µM,–,29.7 µM,19.8 µM,22.4 µM,26.4 µM,27.7 µM,–,23.6 µM,25.1 µM,–,–,–,–,–,–,–,–
CCCCCCCCCCCCN(O)C(=O)c1ccccc1,–,60.7 µM,> 100 µM,49.1 µM,> 100 µM,> 100 µM,88.3 µM,> 100 µM,> 100 µM,> 100 µM,–,–,–,–,–,–,–,–
O=C(O)Cn1c(=O)[nH]c(=O)c2c1ncn2Cc1ccccc1,> 100 µM,> 100 µM,> 100 µM,–,> 100 µM,> 100 µM,> 100 µM,–,> 100 µM,> 100 µM,–,–,–,–,–,–,–,–
Cc1ccc2[nH]c3c(ncc4[nH]c5ccccc5c43)c2c1,32.6 µM,33.7 µM,–,33.2 µM,30.3 µM,26.7 µM,–,30.2 µM,31.7 µM,31 µM,–,–,–,–,–,–,–,–
CC(C)(C)C(=O)O[C@@H]1COC2C(O)COC21 (some centres not stated),> 100 µM,> 100 µM,–,> 100 µM,> 100 µM,> 100 µM,–,> 100 µM,> 100 µM,> 100 µM,–,–,–,–,–,–,–,–
N#CC1(C=O)c2ccccc2C=CN1C(=O)c1ccccc1 (configuration not stated),> 100 µM,> 100 µM,> 100 µM,> 100 µM,> 100 µM,19.3 µM,> 100 µM,> 100 µM,> 100 µM,–,–,–,–,–,–,–,–,–
COc1ccc(/C(=N/NC(N)=O)C(c2ccc(OC)cc2)C2C(=O)Oc3ccccc32)cc1 (configuration not stated),> 100 µM,> 100 µM,> 100 µM,> 100 µM,> 100 µM,> 100 µM,–,> 100 µM,> 100 µM,> 100 µM,–,–,–,–,–,–,–,–
COc1ccccc1S(=O)(=O)Nc1ccc2c(c1)CN(C)C(=O)N2,–,> 100 µM,> 100 µM,> 100 µM,> 100 µM,> 100 µM,22.6 µM and 10.9 µM,> 65.1 µM and 81.5 µM,> 100 µM,–,4.35 µM and 1.75 µM,3.79 µM and 3.32 µM,4.46 µM and 3.86 µM,1410 nM and 1050 nM,20.3 µM and 14.5 µM,1500 nM and 2250 nM,6.76 µM and 9.52 µM,1260 nM and 1120 nM
O=[N+]([O-])c1ccc(Sc2c3ccccc3nc3ccccc23)nc1,–,6.09 µM,12.1 µM,19.2 µM,12.4 µM,4.79 µM,32.8 µM,32.1 µM,29.5 µM,–,–,–,–,–,–,–,–,–
CN(C[C@@H]1COCCO1)S(=O)(=O)Nc1ccc2ccc3ncc(-c4cnn(C)c4)cc3c(=O)c2c1,–,> 100 µM,> 100 µM,> 100 µM,> 100 µM,> 100 µM,2.18 µM,> 100 µM,> 100 µM,–,5.43 µM,3.64 µM,> 100 µM,1950 nM,4.74 µM,447 nM,59.6 µM,3290 nM
C=C(C)[C@@H]1CC[C@]2(COC3CCCCO3)CC[C@]3(C)[C@H](CC[C@@H]4[C@@]5(C)C=C(C=O)C(=O)C(C)(C)[C@@H]5CC[C@]43C)[C@@H]12 (some centres not stated),–,3.45 µM,3.97 µM,4.22 µM,2.74 µM,2.87 µM,1.98 µM,4.2 µM,3.55 µM,–,1.66 µM,1.77 µM,2.06 µM,1360 nM,1.13 µM,368 nM,2.04 µM,1270 nM
Nc1c(C(=O)Nc2ccccc2F)sc2nc3c(cc12)C(=O)CCC3,–,> 100 µM,> 100 µM,> 100 µM,> 100 µM,> 100 µM,> 24 µM,> 100 µM,> 100 µM,–,1.44 µM,0.642 µM,> 100 µM,> 100000 nM,0.721 µM,470 nM,2.2 µM,654 nM
O=C1C2c3[nH]c4ccccc4c3[C@@H]3CCCCC3C2C(=O)N1c1ccccc1 (some centres not stated),72 µM,38.4 µM,> 100 µM,–,45 µM,38.8 µM,71.9 µM,36.5 µM,38.5 µM,92.4 µM,–,–,–,–,–,–,–,–
c1ccc(COCC2OC3c4ccccc4COC3C2OCc2ccccc2)cc1 (configuration not stated),> 100 µM,> 100 µM,> 100 µM,> 100 µM,> 100 µM,> 100 µM,–,> 100 µM,> 100 µM,> 100 µM,–,–,–,–,–,–,–,–
COC(OC)[C@@H](C)[C@H](O)[C@](C)(O)C1OC(C)(C)OC(C(C)C=C(C)C)C1C (some centres not stated),> 100 µM,> 100 µM,> 100 µM,> 100 µM,> 100 µM,> 100 µM,> 100 µM,–,> 100 µM,> 100 µM,–,–,–,–,–,–,–,–
N#Cc1ccc(C(c2ccc(C#N)cc2)n2cncn2)cc1,–,> 5000 µM,> 5000 µM,> 5000 µM,> 5000 µM,> 5000 µM,> 5000 µM,> 5000 µM,–,–,> 5000 µM,> 5000 µM,> 5000 µM,60800 nM and 119000 nM,> 5000 µM,–,> 5000 µM,51500 nM
CCN1C(=O)N(c2ccccc2)C2NN=c3s/c(=C4\C(=O)N(C(C)C)c5ccccc54)c(=O)n3C21 (configuration not stated),–,> 100 µM,> 56.6 µM,> 100 µM,> 100 µM,> 100 µM,1.64 µM,61.8 µM,> 100 µM,–,1.57 µM,0.733 µM,> 51.8 µM,2350 nM,0.891 µM,367 nM,3.5 µM,626 nM
